{"source": "patent US7829524B2", "about": "“Antimicrobial peptides” (Novozymes Adenium Biotech A/S, priority 2003, dated 2010)", "key": {"[1]": {"tested_on": "Micrococcus luteus (ATCC9341)", "assay_type": "cell-based", "conditions": "ATCC9341", "method": "(§1) According to the NCCLS guidelines for susceptibility test of novel antimicrobial compounds, we found a broad spectrum of activity of Cat1 (Methods for Dilution Antimicrobial Susceptibility Tests for Bacteria That Grow Aerobically; Approved Standard-Fifth Edition. NCCLS document M7-A5 (ISBN1-56238-394-9)).\n(§2) In another campaign, the specific MICs of Cat1 were determined against a variety of microbial strains relevant for wound infections. As recommended in the above-mentioned NCCLS protocol, the strains were grown in cationic adjusted Muller-Hinton Broth. The highest concentration tested was 32 μg/ml.\n(§3) The antimicrobial activity of the polypeptides of the invention was analyzed using the Microdilution Broth Assay (see Example 1) with Mueller Hinton Broth (MHB) media. Four different bacterial strains were tested in this setup; Micrococcus luteus (ATCC 9341), Pseudomonas aeruginosa (ATCC 27853), Escherichia coli (ATCC 10536) and Klebsiella pneumoniae (DSM681). The amino acid sequence of the polypeptides and the Minimal Inhibitory concentrations (MIC, microgram/ml) obtained is presented in Table 7 below."}, "[2]": {"tested_on": "Pseudomonas aeroginosa (ATCC27853)", "assay_type": "cell-based, Pseudomonas aeruginosa", "conditions": "ATCC27853", "method": "as §1, §2\nMinimal inhibitory concentrations of Cat1 were also determined using cation-adjusted Mueller hinton broth (MHB) in the microbroth dilution assay, wherein MHB was used with different modifications as depicted in Table 2 below. The selected test organism was Pseudomonas aeroginosa (ATCC 27853). […]"}, "[3]": {"tested_on": "Eschericia coil (ATCC10536)", "assay_type": "cell-based, Escherichia coli", "conditions": "ATCC10536", "method": "as §1, §3"}, "[4]": {"tested_on": "Escherichia coli Top10", "assay": "Radial Diffusion Assay using minimal conditions (MEC)", "assay_type": "cell-based", "conditions": "Table 8", "method": "(§4) A modified version of a previously published protocol has been applied in the detection of antimicrobial activity (Lehrer et al., (1991) Ultra sensitive assays for endogenous antimicrobial polypeptides J Immunol Methods 137: 167-173). Target bacteria (10^6 colony forming units (CFU)) were added to 10 ml of underlay agarose (1% low electro-endosmosis agarose, 0.03% Trypticase soy broth, 10 mM sodium phosphate, pH 7.4, 37 degrees Celsius). Suspension was solidified on an INTEGRID Petri Dish (Becton Dickinson Labware). A 3 mm Gel Puncher was used to make holes in the underlay agarose (Amersham Pharmacia Biotech, Sweden). Samples were added to the holes and incubated at 37 degrees Celsius, 3 hours. An overlay was poured on top and the plate was incubated overnight (LB media, 7.5% Agar). Antimicrobial activity was seen as bacterial clearing zones around the wells. Living cells was counterstained by adding 10 ml, 0.2 mM MTT (3-(4,5-Dimethylthiazol-2-yl)-2,5-diphenyltetrazolium bromide Thiazolyl blue).\n(§5) The antimicrobial activity of the polypeptides of the invention was also analyzed in a Radial Diffusion Assay (see Example 1) using minimal conditions. Two bacterial strains were tested in this setup; Staphylococcus camosus and Escherichia coli Top10. The amino acid sequence of the polypeptides and the Minimal Effective Concentration (MEC, microgram/ml) obtained is presented in table 8 below."}, "[5]": {"tested_on": "Staphylococcus camosus", "assay": "Radial Diffusion Assay using minimal conditions (MEC)", "assay_type": "cell-based", "conditions": "Table 8", "method": "as §4, §5"}, "[6]": {"tested_on": "E. coli TOP10", "assay_type": "cell-based", "method": "A range of synthetic antimicrobial polypeptides were expressed in E. coli TOP10 (Invitrogen) using arabinose as inducer, as disclosed in Example 1 of International patent application WO 00/73433 (with minor modifications). […] Briefly, fresh overnight cultures grown in RM medium containing 0.2% glucose and ampicillin (100 μg/ml) were diluted 300-fold into 150 microliter of RM containing 0.2% glycerol and ampicillin (100 μg/ml) and different concentrations of arabinose (0, 0.01% or 0.1%) in a microtiter plate and incubated at 37 degrees Celsius with vigorous shaking. The growth curve was monitored by measuring OD450 using a Bioscreen C Microbiology reader (Thermo Electron Corporation) at intervals of 30 minutes for 14 hours (see Invitrogen protocol of the pBAD/gill A, B and C vectors catalogue nos. V450-01 for buffer and media composition). The percentage of growth inhibition was calculated as the end point OD measurement of each sample divided by the end point OD measurement obtained from cells containing the control vector and multiplied by 100. The formula is the following: [formula] where “blank OD” corresponds to the OD of an empty well."}, "[7]": {"tested_on": "Klebsiella pneumoniae (DSM681)", "assay_type": "cell-based", "method": "as §1, §3"}, "[8]": {"conditions": "Table 4, 0.01% arabinose, end point OD450, 14 hours"}, "[9]": {"conditions": "Table 4, 0.1% arabinose, end point OD450, 14 hours"}, "[10]": {"conditions": "Table 5, 0.1% arabinose, end point OD450, 14 hours"}}, "note": "Like-named read-outs stand apart in the source and are kept apart here. Where no end group is shown, it is not given here.", "data": [{"sequence": "GLLKRLGRKIGKKLKKIAR [SEQ ID NO: 66, GLLKRLGRKIGKKLKKIAR]", "values": [{"measurement": "MIC", "setting": "[1]", "value": 64, "unit": "µg/mL"}, {"measurement": "MIC", "setting": "[2]", "value": 64, "unit": "µg/mL"}, {"measurement": "MIC", "setting": "[3]", "value": 8, "unit": "µg/mL"}, {"measurement": "MEC", "setting": "[4]", "value": 13.5, "unit": "µg/mL"}, {"measurement": "MEC", "setting": "[5]", "value": 2, "unit": "µg/mL"}, {"measurement": "Growth inhibition using 0.01% arabinose (%)", "setting": "[6]; TOP10, 14 h", "value": 92, "unit": "%"}, {"measurement": "Growth inhibition using 0.1% arabinose (%)", "setting": "[6]; TOP10, 14 h", "value": 100, "unit": "%"}]}, {"sequence": "GLLRRFRKKIGKKLKKIAR [SEQ ID NO: 62, GLLRRFRKKIGKKLKKIAR]", "values": [{"measurement": "MIC", "setting": "[1]", "value": 64, "unit": "µg/mL"}, {"measurement": "MIC", "setting": "[2]", "value": 64, "unit": "µg/mL"}, {"measurement": "MIC", "setting": "[3]", "value": 16, "unit": "µg/mL"}, {"measurement": "MIC", "setting": "[7]", "value": "32 to 64", "unit": "µg/mL"}, {"measurement": "MEC", "setting": "[4]", "value": 28.0, "unit": "µg/mL"}, {"measurement": "MEC", "setting": "[5]", "value": 1.1, "unit": "µg/mL"}, {"measurement": "Growth inhibition using 0.01% arabinose (%)", "setting": "[6]; TOP10, 14 h", "value": 94, "unit": "%"}, {"measurement": "Growth inhibition using 0.1% arabinose (%)", "setting": "[6]; TOP10, 14 h", "value": 98, "unit": "%"}]}, {"sequence": "GLLRRFWKKIGKKLKKFGQKIKPLPKLVP [SEQ ID NO: 41]", "values": [{"measurement": "MIC", "setting": "[1]", "value": 32, "unit": "µg/mL"}, {"measurement": "MIC", "setting": "[2]", "value": 16, "unit": "µg/mL"}, {"measurement": "MIC", "setting": "[3]", "value": 32, "unit": "µg/mL"}, {"measurement": "MIC", "setting": "[7]", "value": 32, "unit": "µg/mL"}, {"measurement": "MEC", "setting": "[4]", "value": 16.6, "unit": "µg/mL"}, {"measurement": "MEC", "setting": "[5]", "value": 3.8, "unit": "µg/mL"}, {"measurement": "Growth inhibition using 0.1% arabinose (%)", "setting": "[6]; TOP10, 14 h", "value": 96, "unit": "%"}]}, {"sequence": "GLLRRLRKKIGKKLKKIAR [SEQ ID NO: 59, GLLRRLRKKIGKKLKKIAR]", "values": [{"measurement": "MIC", "setting": "[1]", "value": 32, "unit": "µg/mL"}, {"measurement": "MIC", "setting": "[2]", "value": 8, "unit": "µg/mL"}, {"measurement": "MIC", "setting": "[3]", "value": 16, "unit": "µg/mL"}, {"measurement": "MIC", "setting": "[7]", "value": 32, "unit": "µg/mL"}, {"measurement": "MEC", "setting": "[4]", "value": 18.3, "unit": "µg/mL"}, {"measurement": "MEC", "setting": "[5]", "value": 1.8, "unit": "µg/mL"}, {"measurement": "Growth inhibition using 0.01% arabinose (%)", "setting": "[6]; TOP10, 14 h", "value": 93, "unit": "%"}, {"measurement": "Growth inhibition using 0.1% arabinose (%)", "setting": "[6]; TOP10, 14 h", "value": 100, "unit": "%"}]}, {"sequence": "GLLRRLWRKIGRKLKKYGQKIKALRKLVP [SEQ ID NO: 13]", "values": [{"measurement": "MIC", "setting": "[1]", "value": 32, "unit": "µg/mL"}, {"measurement": "MIC", "setting": "[2]", "value": 32, "unit": "µg/mL"}, {"measurement": "MIC", "setting": "[3]", "value": 64, "unit": "µg/mL"}, {"measurement": "MIC", "setting": "[7]", "value": 32, "unit": "µg/mL"}, {"measurement": "MEC", "setting": "[4]", "value": 27.0, "unit": "µg/mL"}, {"measurement": "MEC", "setting": "[5]", "value": 4.4, "unit": "µg/mL"}, {"measurement": "Growth inhibition using 0.01% arabinose (%)", "setting": "[6]; TOP10, 14 h", "value": 96, "unit": "%"}, {"measurement": "Growth inhibition using 0.1% arabinose (%)", "setting": "[6]; TOP10, 14 h", "value": 100, "unit": "%"}]}, {"sequence": "GRFRRFRKKIGKKLKKIGLVIKHIRILVP (Synthetic antimicrobial peptide) [SEQ ID NO: 14]", "values": [{"measurement": "Growth inhibition using 0.01% arabinose (%)", "setting": "[6]; [8]", "value": 94, "unit": "%"}, {"measurement": "Growth inhibition using 0.1% arabinose (%)", "setting": "[6]; [9]", "value": 100, "unit": "%"}]}, {"sequence": "GRFRRLGRKIGEKLKKFGQVIKAIRILVP (Synthetic antimicrobial peptide) [SEQ ID NO: 42]", "values": [{"measurement": "Growth inhibition using 0.1% arabinose (%)", "setting": "[6]; [10]", "value": 95, "unit": "%"}]}, {"sequence": "GRIKRVGEKIGKKLKKIGQVIKHLRILVP (Synthetic antimicrobial peptide) [SEQ ID NO: 38]", "values": [{"measurement": "MEC", "setting": "[4]", "value": 8.5, "unit": "µg/mL"}, {"measurement": "MEC", "setting": "[5]", "value": 8, "unit": "µg/mL"}, {"measurement": "Growth inhibition using 0.1% arabinose (%)", "setting": "[6]; [10]", "value": 96, "unit": "%"}]}, {"sequence": "GRIRRLRRKIRKKLKKYGQKIKAIRKIVP (GRLRRLRRKIRKKLKKYGQKIKAIRKLVP; Synthetic antimicrobial peptide) [SEQ ID NO: 27]", "values": [{"measurement": "Growth inhibition using 0.1% arabinose (%)", "setting": "[6]; [10]", "value": 96, "unit": "%"}]}, {"sequence": "GRLRRFGKKIGKKIKKFGQLIKALRILVP (GRLRRFGKKIGKKLKKFGQLIKALRILVP; Synthetic antimicrobial peptide) [SEQ ID NO: 40]", "values": [{"measurement": "Growth inhibition using 0.1% arabinose (%)", "setting": "[6]; [10]", "value": 95, "unit": "%"}]}, {"sequence": "GRLRRFRKKIGKKLKKIGQMIKHIRILVP (Synthetic antimicrobial peptide) [SEQ ID NO: 30]", "values": [{"measurement": "Growth inhibition using 0.1% arabinose (%)", "setting": "[6]; [10]", "value": 95, "unit": "%"}]}, {"sequence": "GRLRRLGKIUGEKLKKFGQMIKHIRILVP (GRLRRLGKKIGEKLKKFGQMIKHIRILVP; Synthetic antimicrobial peptide) [SEQ ID NO: 53]", "values": [{"measurement": "Growth inhibition using 0.1% arabinose (%)", "setting": "[6]; [10]", "value": 84, "unit": "%"}]}, {"sequence": "GRLRRLRRKIGEKLKKFGQVIKALRILVP (Synthetic antimicrobial peptide) [SEQ ID NO: 12]", "values": [{"measurement": "Growth inhibition using 0.01% arabinose (%)", "setting": "[6]; [8]", "value": 94, "unit": "%"}, {"measurement": "Growth inhibition using 0.1% arabinose (%)", "setting": "[6]; [9]", "value": 99, "unit": "%"}]}, {"sequence": "GRLRRLWRKIGRKLKKYGQVIKHLRILVP (Synthetic antimicrobial peptide) [SEQ ID NO: 17]", "values": [{"measurement": "Growth inhibition using 0.01% arabinose (%)", "setting": "[6]; [8]", "value": 94, "unit": "%"}, {"measurement": "Growth inhibition using 0.1% arabinose (%)", "setting": "[6]; [9]", "value": 100, "unit": "%"}]}]}
